Read-outs that look alike come from different tables or passages of the source.
Assays:
D59C MelBSt = biological target: T1, D59C MelBSt (Salmonella typhimurium, UniProt P30878, D59C); test: biochemical; type: binding
T1 construct: Cys scanning mutagenesis for the full-length MelBSt; His10 (C); made in house; host or cells: E. coli DW2
Procedure: (§1) All ITC ligand-binding assays were performed with the TA Instruments (Nano-ITC device) at 25 °C. In a typical experiment, the titrand (MelBSt) in the ITC sample cell was titrated with the specified titrant (placed in the Syringe) by an incremental injection of 2-µL aliquots at an interval of 300 s at a constant stirring rate of 250 r.p.m. All samples were degassed using a TA Instruments Degassing Station (model 6326) for 15 min prior to the titration. Data processing was performed with the NanoAnalyze (version 3.6.0 software) provided with the ITC equipment. The normalized heat changes were subtracted from the heat of dilution elicited by last few injections, where no further binding occurred; the corrected heat changes were plotted against the molar ratio of titrant versus titrand. The values for association constant (Ka) value were determined by fitting the data with a one-site independent-binding model. At most cases, the binding stoichiometry (N) number was fixed to 1 since it is a known parameter, which can restrain the data fitting and achieve more accurate results. The dissociation constant Kd = 1/Ka.
(§2) Supplementary Figure 1. ITC measurements. ITC measurements were performed at 25 °C as described in Methods. (a) Binding thermography. For all tests, ligands and proteins are buffer- […]
(§3) (1 picture or pasted object on this page, not shown here) […]
(§4) matched. For melibiose binding measurements, a solution of 80 mM or 10 mM in the absence or presence of NaCl at 100 mM, was injected into the ITC sample cell containing the WT MelBSt at 80 μM without or with 100 mM NaCl, respectively. With the D59C mutant, […] was used. For α-NPG binding measurements, 0.5 mM or 0.4 mM solution was used to titrate the WT or D59C mutant at 50 μM in the absence or presence or 100 mM NaCl, respectively. For the Na+ or Li+ binding measurements, 5 mM or 2 mM solution was used to titrate WT MelBSt at 80 μM without or with 50 mM melibiose, respectively; 40 mM solutions was used to titrate the D59C mutant. (b) binding isotherm. Curve fit was carried out with a one-site independent-binding model included in the NanoAnalyze software (version 3.6.0).

WT MelBSt = biological target: T2, WT MelBSt (Salmonella typhimurium, UniProt P30878); test: biochemical; type: binding; conditions: for Kd: Kd of substrate binding, α-NPG, ITC 25 °C
T2 construct: Cys scanning mutagenesis for the full-length MelBSt; His10 (C); made in house; host or cells: E. coli DW2
Procedure: as §1, §2, §3, §4

T1 sequence (P30878 whole entry D59C): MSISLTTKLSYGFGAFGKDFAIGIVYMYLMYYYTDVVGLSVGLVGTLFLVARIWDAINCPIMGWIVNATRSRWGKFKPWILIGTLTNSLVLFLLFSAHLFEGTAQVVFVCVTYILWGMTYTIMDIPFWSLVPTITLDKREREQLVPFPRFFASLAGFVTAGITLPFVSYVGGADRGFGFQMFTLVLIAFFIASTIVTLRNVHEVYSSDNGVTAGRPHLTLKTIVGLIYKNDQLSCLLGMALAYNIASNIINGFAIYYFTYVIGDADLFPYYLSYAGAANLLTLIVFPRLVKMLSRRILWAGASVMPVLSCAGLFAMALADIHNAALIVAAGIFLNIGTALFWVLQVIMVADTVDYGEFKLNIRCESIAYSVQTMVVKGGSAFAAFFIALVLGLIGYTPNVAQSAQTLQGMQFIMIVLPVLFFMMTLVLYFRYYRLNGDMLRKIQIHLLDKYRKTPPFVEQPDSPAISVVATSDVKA
T2 sequence (P30878 whole entry): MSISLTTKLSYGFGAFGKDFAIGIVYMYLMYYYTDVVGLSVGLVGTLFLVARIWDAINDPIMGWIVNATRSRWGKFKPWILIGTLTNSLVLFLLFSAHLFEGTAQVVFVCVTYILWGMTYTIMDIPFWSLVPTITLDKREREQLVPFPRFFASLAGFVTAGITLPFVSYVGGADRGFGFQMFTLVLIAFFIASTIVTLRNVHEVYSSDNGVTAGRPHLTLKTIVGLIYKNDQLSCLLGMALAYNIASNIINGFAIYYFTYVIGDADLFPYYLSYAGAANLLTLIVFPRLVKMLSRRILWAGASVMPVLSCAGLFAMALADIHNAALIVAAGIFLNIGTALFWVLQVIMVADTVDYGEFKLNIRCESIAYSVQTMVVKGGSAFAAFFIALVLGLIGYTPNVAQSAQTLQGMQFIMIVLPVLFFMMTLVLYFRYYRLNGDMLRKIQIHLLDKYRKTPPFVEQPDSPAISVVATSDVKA

With `OC[C@H]1O[C@H](OCC2O[C@@H](O)[C@H](O)[C@@H](O)[C@@H]2O)[C@H](O)[C@@H](O)[C@H]1O` (stereo partly shown) [Melibiose] the Kd (D59C MelBSt; Apo, ITC 25 °C, read-out: Kd of substrate binding, Melibiose) was 4660 ± 100 µM, the Kd (D59C MelBSt; Na+ (100 mM), ITC 25 °C, read-out: Kd of substrate binding, Melibiose) was 4960 ± 110 µM and the “Kd lower than that of WT” value (D59C MelBSt; apo state, melibiose binding) was 2 fold. The Kd (D59C MelBSt; read-out: Kd value for melibiose binding) was 6000 µM.
In the case of `O=[N+]([O-])c1ccc(OC2OC(CO)C(O)C(O)C2O)cc1` [α-NPG, 4-nitrophenyl-α-D-galactopyranoside], the Kd (D59C MelBSt; Kd of substrate binding, α-NPG, Apo, ITC 25 °C) is reported as 10.5 ± 1.34 µM, the Kd (D59C MelBSt; Kd of substrate binding, α-NPG, Na+ (100 mM), ITC 25 °C) is reported as 11.97 ± 0.09 µM and the “increased affinity versus WT” value (D59C MelBSt; apo D59C mutant) is reported as “about 4 fold”. The Kd (WT MelBSt; Apo) was 43.2 ± 0.62 µM, the Kd (WT MelBSt; Na+ (100 mM)) was 25.7 ± 4.42 µM and the “greater affinity compared to the native substrate melibiose” value (WT MelBSt; from Table 1) was 100 fold.
